# Laboratory results taken from patent publication US4963553A, “4-[(substituted) alkylcarbonyl]-4,5-dihydro- and -4,5,6,7-tetrahydro-7-[(substituted)phenyl]pyrazolo[1,5-a]pyrimidines” (American Cyanamid Co., priority 1988, dated 1990).
# Counter-ions that a name gives are not always drawn.
# Tested on: mice (hypoxic environment)
# Test: Hypoxic survival test
# Assay type: in vivo, mouse (Royal Hart)
# Conditions: 100 mg/kg, intraperitoneal, 10% oxygen, 5 minutes
# Protocol: The hypoxic survival test is a useful in vivo test for measuring the effectiveness of central nervous system-acting drugs in enhancing survival in an hypoxic environment relative to the known parasympathomimetic agent physostigmine.
# Drugs are tested by intraperitoneal injection of groups of mice 30 minutes prior to placing them in an hypoxic environment and measuring survival. The rationale of this test is that drugs which enhance survival under hypoxic conditions without concomitant depression or sedative side effects, do so by enhancing brain metabolism, i.e., by improving energy supply relative to demand and so preserving normal brain function under conditions of reduced energy metabolism. Considering the dependence of the brain on a constant supply of energy, drugs which have this property may have many far-reaching therapeutic indications, including aiding recovery from stroke and closed head injury and reducing the deleterious effects of age-related central nervous system deficits.
# In the hypoxic survival test, groups of 20 Royal Hart mice (6 weeks of age) were injected intraperitoneally with a test compound in saline at various doses ranging from 1 to 200 mg/kg, 30 minutes prior to placing them in an hypoxic mixture (10% oxygen, 90% […]) and measuring survival after 5 minutes.
# A control group of 20 mice was injected intraperitoneally with saline (0.01 ml/g of body weight) and processed as described above.
# Another group of 20 mice was injected intraperitoneally with 0.125 mg/kg of physostigmine in saline and processed as described above.
row,SMILES,% Survivors
1,"N#Cc1cnn2c1N(C(=O)CN1CCN(CCc3ccccc3)CC1)CC=C2c1cccc(C(F)(F)F)c1 [4,5-Dihydro-4-[[4-(2-phenylethyl)-1-piperazinyl]acetyl]-7-[3-trifluoromethyl)phenyl]pyrazolo[1,5-a]pyrimidine-3-carbonitrile]",90%
2,"CC1C=C(c2cccc(C(F)(F)F)c2)n2ncc(C#N)c2N1C(=O)CN1CCN(Cc2ccccc2)CC1 (centres unmarked) [Example 72, 4,5-Dihydro-5-methyl-4-[[4-(phenylmethyl)-1-piperazinyl]acetyl]-7-[3-(trifluoromethyl)phenyl]pyrazolo[1,5-a]pyrimidine-3-carbonitrile]",25%
3,"N#Cc1cnn2c1N(C(=O)CN1CCN(Cc3cccc(C(F)(F)F)c3)CC1)CC=C2c1cccc(C(F)(F)F)c1 [Example 128, 4,5-Dihydro-4-[[4-[(3-trifluoromethylphenyl)methyl]-1-piperazinyl]acetyl]-7-[3-(trifluoromethyl)phenyl]pyrazolo[1,5-a]pyrimidine-3-carbonitrile]",40%
4,"Cl.Cl.N#Cc1cnn2c1N(C(=O)CN1CCN(CCc3ccccc3)CC1)CC=C2c1cccc(C(F)(F)F)c1 [Example 132, 4,5-Dihydro-4-[[4-(2-phenylethyl)-1-piperazinyl)acetyl]-7-[3-(trifluoromethyl)phenyl]pyrazolo[1,5-a]pyrimidine-3-carbonitrile, dihydrochloride]",60%

# Same assay, conditions: Mus musculus, ip, 5 min, 10 mg/kg, intraperitoneal, 10% oxygen, 5 minutes; read-out: % Survivors
row,SMILES,responders at 10 mg/kg
1,"N#Cc1cnn2c1N(C(=O)CN1CCN(Cc3c(Cl)cccc3Cl)CC1)CCC2c1cccc(C(F)(F)F)c1 (centres unmarked) [Example 54, 4-[[4-[(2,6-Dichlorophenyl)methyl]-1-piperazinyl]acetyl]-4,5,6,7-tetrahydro-7-[3-(trifluoromethyl)phenyl]pyrazolo[1,5-a]pyrimidine-3-carbonitrile]",25%
2,"N#Cc1cnn2c1N(C(=O)CN1CCN(Cc3ccccc3)CC1)CC=C2c1ccc(Cl)cc1 [Example 58, 7-(4-Chlorophenyl)-4,5-dihydro-4-[[4-(phenylmethyl)-1-piperazinyl]acetyl]pyrazolo[1,5-a]pyrimidine-3-carbonitrile]",50%
3,"N#Cc1cnn2c1N(C(=O)CN1CCN(Cc3ccccc3C(F)(F)F)CC1)CC=C2c1ccc(Cl)cc1 [Example 59, 7-(4-Chlorophenyl)-4,5-dihydro-4-[[4-[[2-(trifluoromethyl)phenyl]methyl]-1-piperazinyl]acetyl]pyrazolo[1,5-a]pyrimidine-3-carbonitrile]",55%
4,"NC(=O)c1cnn2c1N(C(=O)CN1CCN(Cc3ccccc3)CC1)CC=C2c1cccc(C(F)(F)F)c1 [Example 75, 4,5-Dihydro-4-[[4-(phenylmethyl)-1-piperazinyl]acetyl]-7-[3-(trifluoromethyl)phenyl]pyrazolo[1,5-a]pyrimidine-3-carboxamide]",15%
5,"N#Cc1cnn2c1N(C(=O)CN1CCN(C3CCC3)CC1)CC=C2c1cccc(C(F)(F)F)c1 [Example 91, 4-[(4-Cyclobutyl-1-piperazinyl)acetyl]-4,5-dihydro-7-[3-(trifluoromethyl)phenyl]pyrazolo[1,5-a]pyrimidine-3-carbonitrile, dihydrochloride]",55%

# Same assay, conditions: Mus musculus, ip, 5 min, 50 mg/kg, intraperitoneal, 10% oxygen, 5 minutes; read-out: % Survivors
row,SMILES,responders at 50 mg/kg
1,"CC1=C(c2cccc(Cl)c2)n2ncc(C#N)c2N(C(=O)CN2CCN(Cc3cccc(Cl)c3)CC2)C1 [Example 131, 7-(3-Chloroohenyl)-4-[[4-[(3-Chlorophenyl)methyl-1-piperazinyl]acetyl]4,5-dihydro-6-methylpyrazolo[1,5-a]pyrimidine-3-carbonitrile, dihydrochloride]",73%

# Same assay, conditions: Mus musculus, ip, 5 min, 100 mg/kg, intraperitoneal, 10% oxygen, 5 minutes; read-out: % Survivors
row,SMILES,responders at 100 mg/kg
1,"N#Cc1cnn2c1N(C(=O)CN1CCN(c3ccccc3)CC1)CC=C2c1cc(Cl)ccc1Cl [7-(2,5-Dichlorophenyl)-4,5-dihydro-4-[(4-phenyl-1-piperazinyl)acetyl]pyrazolo[1,5-a]pyrimidine-3-carbonitrile]",70%
2,"CC1=C(c2cccc(Cl)c2)n2ncc(C#N)c2N(C(=O)CN2CCN(Cc3cccc(C(F)(F)F)c3)CC2)C1 [7-(3-Chlorophenyl)-4,5-dihydro-6-methyl-4-[[4-[[3-(trifluoromethyl)phenyl]methyl]-1-piperazinyl]acetyl]pyrazolo[1,5-a]pyrimidine-3-carbonitrile, sesquihydrochloride]",35%
3,"N#Cc1cnn2c1N(C(=O)CN1CCN(Cc3cccc(Cl)c3)CC1)CCC2c1cccc(C(F)(F)F)c1 (centres unmarked) [Example 53, 4-[[4-[(3-Chlorophenyl)methyl]-1-piperazinyl]acetyl]-4,5,6,7-tetrahydro-7-[3-(trifluoromethyl)phenyl]pyrazolo[1,5-a]pyrimidine-3-carbonitrile]",15%
4,"N#Cc1cnn2c1N(C(=O)CN1CCN(Cc3ccccc3)CC1)CC=C2c1ccc(Cl)cc1 [Example 58, 7-(4-Chlorophenyl)-4,5-dihydro-4-[[4-(phenylmethyl)-1-piperazinyl]acetyl]pyrazolo[1,5-a]pyrimidine-3-carbonitrile]",82.5%
5,"N#Cc1cnn2c1N(C(=O)CN1CCN(Cc3ccccc3C(F)(F)F)CC1)CC=C2c1ccc(Cl)cc1 [Example 59, 7-(4-Chlorophenyl)-4,5-dihydro-4-[[4-[[2-(trifluoromethyl)phenyl]methyl]-1-piperazinyl]acetyl]pyrazolo[1,5-a]pyrimidine-3-carbonitrile]",90%
6,"N#Cc1cnn2c1N(C(=O)CN1CCN(Cc3ccccc3)CC1)CC=C2c1cc(Cl)ccc1Cl [Example 62, 7-(2,5-Dichlorophenyl)-4,5-dihydro-4-[[4-(phenylmethyl)-1-piperazinyl]acetyl]pyrazolo[1,5-a]pyrimidine-3-carbonitrile]",50%
7,"Cc1ccc(C)c(N2CCN(CC(=O)N3CC=C(c4cc(Cl)ccc4Cl)n4ncc(C#N)c43)CC2)c1 [Example 66, 7-(2,5-Dichlorophenyl)-4-[[4-(2,5-dimethylphenyl)-1-piperazinyl]acetyl]-4,5-dihydropyrazolo[1,5-a]pyrimidine-3-carbonitrile]",45%
8,"N#Cc1cnn2c1N(C(=O)CN1CCN(C(=O)c3ccccc3)CC1)CC=C2c1cccc(C(F)(F)F)c1 [Example 68, 4-[[4-Benzoyl-1-piperazinyl)acetyl]-4,5-dihydro-7-[3-(trifluoromethyl)phenyl]pyrazolo[1,5-a]pyrimidine-3-carbonitrile]",95%
9,"O=C(CN1CCN(Cc2ccccc2)CC1)N1CC=C(c2cccc(C(F)(F)F)c2)n2ncc(Br)c21 [Example 76, 3-Bromo-4,5-dihydro-4-[[4-(phenylmethyl)-1-piperazinyl]acetyl]-7-[3-(trifluoromethyl)phenyl]pyrazolo[1,5-a]pyrimidine]",35%
10,"N#Cc1cnn2c1N(C(=O)CN1CCN(C(c3ccc(F)cc3)c3ccc(F)cc3)CC1)CC=C2c1cccc(C(F)(F)F)c1 [Example 88, 4-[[4-[Bis(4-Fluorophenyl)methyl]-1-piperazinyl]acetyl]-4,5-dihydro-7-[3-(trifluoromethyl)phenyl]pyrazolo[1,5-a]pyrimidine-3-carbonitrile, dihydrochloride]",55%
11,"CC1C=C(c2cccc(C(F)(F)F)c2)n2ncc(C#N)c2N1C(=O)CN1CCN(Cc2ccccc2)CC1 (centres unmarked) [Example 95, 4,5-Dihydro-5-methyl-4-[[4-(phenylmethyl)-1-piperazinyl]acetyl]-7-[3-(trifluoromethyl)phenyl]pyrazolo[1,5-a]pyrimidine-3-carbonitrile, dihydrochloride]",43%
12,"N#Cc1cnn2c1N(C(=O)CN1CCN(C(=O)Nc3ccc(Cl)c(C(F)(F)F)c3)CC1)CC=C2c1cccc(C(F)(F)F)c1 [Example 106, N-[4-Chloro-3-(trifluoromethyl)phenyl]-4-[2-[3-cyano-7-[3-(trifluoromethyl)phenyl)pyrazolo[1.5-a]pyrimidin-4(5H)-yl]-2-oxoethyl]-1-piperazinecarboxamide]",15%
13,N#Cc1cnn2c1N(C(=O)CN1CCN(C(=O)Nc3ccc(F)cc3F)CC1)CC=C2c1cccc(C(F)(F)F)c1 [Example 107],20%
14,"CC1=C(c2cccc(C(F)(F)F)c2)n2ncc(C#N)c2N(C(=O)CN2CCN(Cc3ccccc3)CC2)C1 [Example 111, 4,5-Dihydro-6-methyl-4-[[4-(phenylmethyl)-1-piperazinyl]acetyl]-7-[3-(trifluoromethyl)phenyl]pyrazolo[1.5-a]pyrimidine-3-carbonitrile. dihydrochloride]",73%
15,"CC1=C(c2cccc(Cl)c2)n2ncc(C#N)c2N(C(=O)CN2CCN(Cc3ccccc3)CC2)C1 [Example 113, 7-(3-Chlorophenyl)-4.5-dihydro-6-methyl-4-[[4-(phenylmethyl)piperazinyl]acetyl]pyrazolo[1,5-a]pyrimidine-3-carbonitrile, dihydrochloride]",30%
16,"CC1=C(c2ccc(Cl)cc2)n2ncc(C#N)c2N(C(=O)CN2CCN(Cc3ccccc3)CC2)C1 [Example 114, 7-(4-Chlorophenyl)-4.5-dihydro-6-methyl-4[[4-(phenylmethyl)piperazinyllacetyllpyrazolo[1,5-a]pyrimidine-3-carbonitrile, dihydrochloride]",25%
17,"CC1=C(c2cccc(Cl)c2)n2ncc(C#N)c2N(C(=O)CN2CCN(Cc3cccc(Cl)c3)CC2)C1 [Example 131, 7-(3-Chloroohenyl)-4-[[4-[(3-Chlorophenyl)methyl-1-piperazinyl]acetyl]4,5-dihydro-6-methylpyrazolo[1,5-a]pyrimidine-3-carbonitrile, dihydrochloride]",77%

# Same assay, conditions: Mus musculus, ip, 5 min, 200 mg/kg, intraperitoneal, 10% oxygen, 5 minutes; read-out: % Survivors
row,SMILES,responders at 200 mg/kg
1,"Cc1ccc(C)c(N2CCN(CC(=O)N3CC=C(c4cc(Cl)ccc4Cl)n4ncc(C#N)c43)CC2)c1 [Example 66, 7-(2,5-Dichlorophenyl)-4-[[4-(2,5-dimethylphenyl)-1-piperazinyl]acetyl]-4,5-dihydropyrazolo[1,5-a]pyrimidine-3-carbonitrile]",80%
2,"CC1=C(c2cccc(Cl)c2)n2ncc(C#N)c2N(C(=O)CN2CCN(Cc3cccc(C(F)(F)F)c3)CC2)C1 [Example 127, 7-(3-Chlorophenyl)-4,5-dihydro-6-methyl-4-[[4-[[3-(trifluoromethyl)phenyl]methyl]-1-piperazinyl]acetyl]pyrazolo[1,5-a]pyrimidine-3-carbonitrile]",73%
